Earlier results as cited in patent publication US20110008867A1, “COMPOSITIONS AND METHODS FOR THE PRODUCTION OF A COMPOUND” (GREENLIGHT BIOSCIENCES, priority 2008, published 2011).

Legend:
yeast = details: in yeast; concentration that inhibits cell growth
E. coli = details: in E. coli; concentration that inhibits cell growth

Compound	Inhibition Concentration (yeast)	Inhibition Concentration (E. coli)
CCO [Ethanol]	15%	5%
CCCCO [1-butanol]	–	1.3% in E. coli
CCCCCCCCCCO [1-decanol]	–	0.000236% in E. Coli
CCCCCO [1-pentanol]	–	0.25% in E. Coli
